# What was measured:
# Assay type in all cases: in vivo
# [1] = system: sedge, umbrella (small-flower umbrella sedge, Cyperus difformis); assay: Test B flooded paddy test; settings: 250 g ai/ha, Flood; visual rating on scale of 0 to 100 where 0 is no effect and 100 is complete control; 13 to 15 d after treatment
# In short: (§1)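 Ratings use a 0-100 visual scale, where 100 is complete control, and compare treated plants with controls after 13 to 15 d of greenhouse growth. Compound went straight into paddy water kept 3 cm over the soil surface, applied to seedlings at the 2-leaf stage.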
# rice (Oryza sativa) = assay: Test B flooded paddy test; settings: 250 g ai/ha, Flood; visual rating on scale of 0 to 100 where 0 is no effect and 100 is complete control; 13 to 15 d after treatment
# In short: as §1
# [2] = system: barnyardgrass (Echinochloa crus-galli); assay: Test B flooded paddy test; settings: 250 g ai/ha, Flood; visual rating on scale of 0 to 100 where 0 is no effect and 100 is complete control; 13 to 15 d after treatment
# In short: as §1
# [3] = system: ducksalad (Heteranthera limosa); assay: Test B flooded paddy test; settings: 250 g ai/ha, Flood; visual rating on scale of 0 to 100 where 0 is no effect and 100 is complete control; 13 to 15 d after treatment
# In short: as §1
# kochia (Kochia scoparia) = assay: Test A greenhouse herbicide test, pre- and postemergence
# In short: (§2)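 Visual injury ratings, 0 (no effect) to 100 (complete control), versus untreated plants after roughly 10 d in a greenhouse. Compounds, formulated in a surfactant-containing non-phytotoxic solvent, were sprayed on loam–sand soil after sowing (pre) or on one- to two-leaf plants 2–10 cm tall (post).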
# [4] = system: ryegrass, Italian (Italian ryegrass, Lolium multiflorum); assay: as above
# In short: as §2
# [5] = system: foxtail, giant (giant foxtail, Setaria faberii); assay: as above
# In short: as §2
# [6] = system: pigweed (Amaranthus retroflexus); assay: as above
# In short: as §2
# [7] = system: ragweed (common ragweed, Ambrosia elatior); assay: as above
# In short: as §2
# [8] = system: barnyardgrass (Echinochloa crus-galli); assay: as above
# In short: as §2
# corn (Zea mays) = assay: as above; settings: Postemergence
# In short: as §2
# [9] = system: wheat (Triticum aestivum); assay: as above; settings: Postemergence
# In short: as §2
# [10] = system: galium (catchweed bedstraw, Galium aparine); assay: Test A greenhouse herbicide test, postemergence
# In short: (§3)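 Seedlings in a loam soil and sand mix received formulated compound postemergence at the one- to two-leaf stage. Greenhouse holding lasts approximately 10 d, then injury is scored visually relative to untreated plants, 0 meaning no effect and 100 complete control.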
# [11] = system: blackgrass (Alopecurus myosuroides); assay: Test A greenhouse herbicide test, postemergence
# In short: as §3
# [12] = Postemergence, 125 g ai/ha, 0 to 100 scale, 0 no effect, 100 complete control
# [13] = Postemergence, 500 g ai/ha, visual rating after approx. 10 d, 0 to 100 scale (0 no effect, 100 complete control)
# [14] = Preemergence, 125 g ai/ha, visual injury rating, 0 to 100 scale (0 no effect, 100 complete control), approx. 10 d
# [15] = Preemergence, 500 g ai/ha, 0 to 100 scale where 0 is no effect and 100 is complete control
# [16] = 125 g ai/ha, 0 to 100 scale, 0 no effect, 100 complete control
# [17] = 500 g ai/ha, visual rating after approx. 10 d, 0 to 100 scale (0 no effect, 100 complete control)
# [18] = Postemergence, 125 g ai/ha, 0 to 100 scale where 0 is no effect and 100 is complete control
# [19] = Preemergence, 125 g ai/ha, 0 to 100 scale where 0 is no effect and 100 is complete control
# [20] = 125 g ai/ha, 0 to 100 scale where 0 is no effect and 100 is complete control
Structure (SMILES),"Plant response rating, Sedge, Umbrella [1]","Plant response rating, Rice (rice (Oryza sativa))","Plant response rating, Barnyardgrass [2]","Plant response rating, Ducksalad [3]","Plant response rating, Kochia (kochia (Kochia scoparia); [13])","Plant response rating, Kochia (kochia (Kochia scoparia); [15])","Plant response rating, Ryegrass, Italian [4, 13]","Plant response rating, Ryegrass, Italian [4, 15]","Plant response rating, Foxtail, Giant [5, 13]","Plant response rating, Foxtail, Giant [5, 15]","Plant response rating, Pigweed [6, 13]","Plant response rating, Pigweed [6, 15]","Plant response rating, Ragweed [7, 13]","Plant response rating, Ragweed [7, 15]","Plant response rating, Barnyardgrass [8, 13]","Plant response rating, Barnyardgrass [8, 15]","Plant response rating, Corn (corn (Zea mays); [17])","Plant response rating, Wheat [9, 17]","Plant response rating, Galium [10, 17]","Plant response rating, Blackgrass [11, 17]",also measured
COC(=O)Cn1nc(C)c(O)c(-c2cccc3ccccc23)c1=O [Compound 172],0,0,0,0,20,0,60,20,80,90,30,0,0,0,70,50,0,20,40,30,"Plant response rating, Kochia (kochia (Kochia scoparia); [12]): 0; Plant response rating, Kochia (kochia (Kochia scoparia); [14]): 0; Plant response rating, Ryegrass, Italian [4, 12]: 20; Plant response rating, Ryegrass, Italian [4, 14]: 0; Plant response rating, Foxtail, Giant [5, 12]: 40; Plant response rating, Foxtail, Giant [5, 14]: 60; Plant response rating, Pigweed [6, 12]: 0; Plant response rating, Pigweed [6, 14]: 0; Plant response rating, Ragweed [7, 12]: 0; Plant response rating, Ragweed [7, 14]: 0; Plant response rating, Barnyardgrass [8, 12]: 40; Plant response rating, Barnyardgrass [8, 14]: 20; Plant response rating, Corn (corn (Zea mays); [16]): 0; Plant response rating, Wheat [9, 16]: 20; Plant response rating, Galium [10, 16]: 20; Plant response rating, Blackgrass [11, 16]: 20"
CC(=O)Oc1c(C)nn(C)c(=O)c1-c1c(C(F)(F)F)ccc2ccccc12 [Compound 148],0,0,0,0,90,90,90,100,70,50,90,100,90,80,30,60,0,60,90,80,"Plant response rating, Kochia (kochia (Kochia scoparia); [18]): 80; Kochia plant response rating (kochia (Kochia scoparia); [19]): 30; Plant response rating, Ryegrass, Italian [4, 18]: 90; Plant response rating, Foxtail, Giant [5, 18]: 30; Foxtail, Giant plant response rating [5, 19]: 20; Plant response rating, Pigweed [6, 18]: 90; Pigweed plant response rating [6, 19]: 100; Plant response rating, Ragweed [7, 18]: 90; Plant response rating, Barnyardgrass [8, 18]: 10; Barnyardgrass plant response rating [8, 19]: 10; Plant response rating, Corn (corn (Zea mays); [20]): 0; Plant response rating, Wheat [9, 20]: 20; Plant response rating, Galium [10, 20]: 90; Plant response rating, Blackgrass [11, 20]: 60"

# From US10597388B2, “Pyridazinone herbicides” (FMC CORPORATION, priority 2014, dated 2020)
